Test results: ChEMBL document CHEMBL1201861, “Genomics of Drug Sensitity in Cancer screening data, Wellcome Trust Sanger Institute”
pIC50: −log10 of the molar value.

How the values were obtained:
Experiment in all cases: cells
COLO-829 = format: functional, cell-based, Homo sapiens; conditions: Homo sapiens, COLO-829
Description: SANGER: Inhibition of human COLO-829 cell growth in a cell viability assay.

D-263MG = format: functional, cell-based, Homo sapiens; conditions: Homo sapiens, D-263MG
Description: SANGER: Inhibition of human D-263MG cell growth in a cell viability assay.

DU-4475 = format: functional, cell-based, Homo sapiens; conditions: Homo sapiens, DU-4475
Description: SANGER: Inhibition of human DU-4475 cell growth in a cell viability assay.

ES5 = format: functional, cell-based, Homo sapiens; conditions: Homo sapiens, ES5;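 note: growth inhibition of human ES5 cells, read out by a cell viability assay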
Description: SANGER: Inhibition of human ES5 cell growth in a cell viability assay.

ES6 = format: functional, cell-based; conditions: Homo sapiens;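 note: growth inhibition of human ES6 cells, read out with a cell viability assay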
Description: SANGER: Inhibition of human ES6 cell growth in a cell viability assay.

ES7 = format: functional, cell-based, Homo sapiens; conditions: Homo sapiens, ES7;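 note: growth inhibition of cultured human ES7 cells, read out as cell viability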
Description: SANGER: Inhibition of human ES7 cell growth in a cell viability assay.

EW-3 = format: functional, cell-based, Homo sapiens; conditions: Homo sapiens, EW-3;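 note: cell viability assay read-out, IC50 reflects inhibition of growth of the EW-3 cells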
Description: SANGER: Inhibition of human EW-3 cell growth in a cell viability assay.

GOTO = format: functional, cell-based, Homo sapiens; conditions: Homo sapiens, GOTO;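 note: growth inhibition of GOTO cells, read out by a cell viability assay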
Description: SANGER: Inhibition of human GOTO cell growth in a cell viability assay.

HCC2218 = format: functional, cell-based, Homo sapiens; conditions: Homo sapiens, HCC2218;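 note: cell viability assay read-out, with IC50 given as the concentration that inhibits growth of the cell line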
Description: SANGER: Inhibition of human HCC2218 cell growth in a cell viability assay.

HEL = format: functional, cell-based, Homo sapiens; conditions: Homo sapiens, HEL;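 note: growth inhibition of HEL cells, read out with a cell viability assay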
Description: SANGER: Inhibition of human HEL cell growth in a cell viability assay.

IST-MES1 = format: functional, cell-based, Homo sapiens; conditions: Homo sapiens, IST-MES1;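 note: growth inhibition of IST-MES1 cells, measured with a cell viability assay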
Description: SANGER: Inhibition of human IST-MES1 cell growth in a cell viability assay.

K562 = format: functional, cell-based, Homo sapiens; conditions: Homo sapiens, K562
Description: SANGER: Inhibition of human K-562 cell growth in a cell viability assay.

KS-1 = format: functional, cell-based; conditions: Homo sapiens;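 note: growth inhibition of KS-1 cells, read out with a cell viability assay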
Description: SANGER: Inhibition of human KS-1 cell growth in a cell viability assay.

L-363 = format: functional, cell-based, Homo sapiens; conditions: Homo sapiens, L-363
Description: SANGER: Inhibition of human L-363 cell growth in a cell viability assay.

L-428 = format: functional, cell-based, Homo sapiens; conditions: Homo sapiens, L-428
Description: SANGER: Inhibition of human L-428 cell growth in a cell viability assay.

LS-1034 = format: functional, cell-based, Homo sapiens; conditions: Homo sapiens, LS-1034
Description: SANGER: Inhibition of human LS-1034 cell growth in a cell viability assay.

LU-139 = format: functional, cell-based, Homo sapiens; conditions: Homo sapiens, LU-139
Description: SANGER: Inhibition of human LU-139 cell growth in a cell viability assay.

MFM-223 = format: functional, cell-based, Homo sapiens; conditions: Homo sapiens, MFM-223
Description: SANGER: Inhibition of human MFM-223 cell growth in a cell viability assay.

MOLT-4 = format: functional, cell-based, Homo sapiens; conditions: Homo sapiens, MOLT-4;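 note: growth inhibition of MOLT-4 cells, determined with a cell viability readout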
Description: SANGER: Inhibition of human MOLT-4 cell growth in a cell viability assay.

MPP-89 = format: functional, cell-based, Homo sapiens; conditions: Homo sapiens, MPP-89;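 note: growth inhibition of human MPP-89 cells, read out with a cell viability assay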
Description: SANGER: Inhibition of human MPP-89 cell growth in a cell viability assay.

MV4-11 = format: functional, cell-based, Homo sapiens, MV-4-11; conditions: Homo sapiens, MV4-11;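 note: cell viability readout measuring growth inhibition of human MV-4-11 cells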
Description: SANGER: Inhibition of human MV-4-11 cell growth in a cell viability assay.

Mo = format: functional, cell-based, Homo sapiens; conditions: Homo sapiens, Mo
Description: SANGER: Inhibition of human Mo-T cell growth in a cell viability assay.

NB10 = format: functional, cell-based, Homo sapiens; conditions: Homo sapiens, NB10;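 note: growth inhibition of NB10 cells, read out by a cell viability assay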
Description: SANGER: Inhibition of human NB10 cell growth in a cell viability assay.

NB13 = format: functional, cell-based, Homo sapiens; conditions: Homo sapiens, NB13;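 note: cell viability readout measuring growth inhibition of human NB13 cells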
Description: SANGER: Inhibition of human NB13 cell growth in a cell viability assay.

NB69 = format: functional, cell-based, Homo sapiens; conditions: Homo sapiens, NB69;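 note: growth inhibition of NB69 cells, determined by a cell viability assay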
Description: SANGER: Inhibition of human NB69 cell growth in a cell viability assay.

NCI-H1304 = format: functional, cell-based, Homo sapiens; conditions: Homo sapiens, NCI-H1304;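 note: growth inhibition of the cancer cell line, measured in a cell viability assay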
Description: SANGER: Inhibition of human NCI-H1304 cell growth in a cell viability assay.

NCI-H1648 = format: functional, cell-based, Homo sapiens; conditions: Homo sapiens, NCI-H1648;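 note: cell viability assay measuring inhibition of NCI-H1648 cell growth, from the Sanger screening data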
Description: SANGER: Inhibition of human NCI-H1648 cell growth in a cell viability assay.

NCI-H1770 = format: functional, cell-based, Homo sapiens; conditions: Homo sapiens, NCI-H1770;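 note: growth inhibition of NCI-H1770 cells determined with a viability readout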
Description: SANGER: Inhibition of human NCI-H1770 cell growth in a cell viability assay.

NCI-H1838 = format: functional, cell-based, Homo sapiens; conditions: Homo sapiens, NCI-H1838;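 note: growth inhibition of NCI-H1838 cells, determined with a cell viability readout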
Description: SANGER: Inhibition of human NCI-H1838 cell growth in a cell viability assay.

NCI-H720 = format: functional, cell-based, Homo sapiens; conditions: Homo sapiens, NCI-H720;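 note: growth inhibition of human NCI-H720 cells determined by a cell viability assay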
Description: SANGER: Inhibition of human NCI-H720 cell growth in a cell viability assay.

NH-12 = format: functional, cell-based, Homo sapiens; conditions: Homo sapiens, NH-12;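 note: growth inhibition of NH-12 cells, read out with a cell viability assay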
Description: SANGER: Inhibition of human NH-12 cell growth in a cell viability assay.

NOS-1 = format: functional, cell-based, Homo sapiens; conditions: Homo sapiens, NOS-1;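 note: growth inhibition of the human NOS-1 cell line, read out with a cell viability assay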
Description: SANGER: Inhibition of human NOS-1 cell growth in a cell viability assay.

OS-RC-2 = format: functional, cell-based, Homo sapiens; conditions: Homo sapiens, OS-RC-2;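 note: growth inhibition of human OS-RC-2 cells, measured by a cell viability assay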
Description: SANGER: Inhibition of human OS-RC-2 cell growth in a cell viability assay.

SF-126 = format: functional, cell-based, Homo sapiens; conditions: Homo sapiens, SF-126;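 note: growth inhibition of human SF126 cells, read out with a cell viability assay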
Description: SANGER: Inhibition of human SF126 cell growth in a cell viability assay.

SF-539 = format: functional, cell-based, Homo sapiens; conditions: Homo sapiens, SF-539;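 note: Read-out is a cell viability assay, with IC50 reflecting inhibition of cell growth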
Description: SANGER: Inhibition of human SF539 cell growth in a cell viability assay.

SK-LMS-1 = format: functional, cell-based, Homo sapiens; conditions: Homo sapiens, SK-LMS-1;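 note: growth inhibition of human SK-LMS-1 cells, read out with a cell viability assay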
Description: SANGER: Inhibition of human SK-LMS-1 cell growth in a cell viability assay.

SK-MEL-2 = format: functional, cell-based, Homo sapiens; conditions: Homo sapiens, SK-MEL-2;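 note: growth inhibition of human SK-MEL-2 cells measured with a cell viability assay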
Description: SANGER: Inhibition of human SK-MEL-2 cell growth in a cell viability assay.

SK-NEP-1 = format: functional, cell-based, Homo sapiens; conditions: Homo sapiens, SK-NEP-1;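 note: growth inhibition of human SK-NEP-1 cells, read out by a cell viability assay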
Description: SANGER: Inhibition of human SK-NEP-1 cell growth in a cell viability assay.

SK-PN-DW = format: functional, cell-based, Homo sapiens; conditions: Homo sapiens, SK-PN-DW;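 note: growth inhibition measured with a viability assay on these cells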
Description: SANGER: Inhibition of human SK-PN-DW cell growth in a cell viability assay.

SW684 = format: functional, cell-based, Homo sapiens; conditions: Homo sapiens, SW684; read-out: IC50;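 note: growth inhibition of human SW684 cells, measured by a cell viability assay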
Description: SANGER: Inhibition of human SW684 cell growth in a cell viability assay.

TE-1 = format: functional, cell-based, Homo sapiens; conditions: Homo sapiens, TE-1
Description: SANGER: Inhibition of human TE-1 cell growth in a cell viability assay.

697 = format: functional, cell-based, Homo sapiens; conditions: Homo sapiens
Description: SANGER: Inhibition of human 697 cell growth in a cell viability assay.

A704 = format: functional, cell-based; conditions: Homo sapiens;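 note: growth inhibition of human A704 cells, read out with a cell viability assay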
Description: SANGER: Inhibition of human A704 cell growth in a cell viability assay.

ATN-1 = format: functional, cell-based, Homo sapiens; conditions: Homo sapiens, ATN-1;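 note: growth inhibition of human ATN-1 cells, read out with a cell viability assay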
Description: SANGER: Inhibition of human ATN-1 cell growth in a cell viability assay.

BB49-HNC = format: functional, cell-based, Homo sapiens; conditions: Homo sapiens, BB49-HNC;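 note: cell viability assay read-out, reported as inhibition of BB49-HNC cell growth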
Description: SANGER: Inhibition of human BB49-HNC cell growth in a cell viability assay.

TE-12 = format: functional, cell-based, Homo sapiens; conditions: Homo sapiens, TE-12;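 note: growth inhibition of TE-12 cells, read out by a cell viability assay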
Description: SANGER: Inhibition of human TE-12 cell growth in a cell viability assay.

TE-6 = format: functional, cell-based, Homo sapiens; conditions: Homo sapiens, TE-6;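 note: growth inhibition of TE-6 cells, read out with a cell viability assay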
Description: SANGER: Inhibition of human TE-6 cell growth in a cell viability assay.

TK-10 = format: functional, cell-based, Homo sapiens; conditions: Homo sapiens, TK-10;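 note: growth inhibition of TK-10 cells, read out in a cell viability assay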
Description: SANGER: Inhibition of human TK10 cell growth in a cell viability assay.

CGTH-W-1 = format: functional, cell-based, Homo sapiens; conditions: Homo sapiens, CGTH-W-1;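 note: growth inhibition of human CGTH-W-1 cells measured by cell viability assay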
Description: SANGER: Inhibition of human CGTH-W-1 cell growth in a cell viability assay.

Measured: pIC50

C=CC(=O)N1CCCC(Nc2nc(Nc3ccc(N(C)C(=O)CC)cc3)nc3[nH]cnc23)C1 (stereo not drawn)
5.07: NCI-H1648
< 4.99: COLO-829 | D-263MG | DU-4475 | ES5 | ES6 | ES7 | EW-3 | GOTO | HCC2218 | HEL | IST-MES1 | K562 | L-363 | L-428 | LS-1034 | LU-139 | MFM-223 | MOLT-4 | MPP-89 | Mo | NB10 | NB13 | NB69 | NCI-H1304 | NCI-H1770 | NCI-H1838 | NCI-H720 | NH-12 | NOS-1 | OS-RC-2 | SF-126 | SF-539 | SK-LMS-1 | SK-MEL-2 | SK-NEP-1 | SK-PN-DW | SW684 | TE-1 | 697 | A704 | ATN-1 | BB49-HNC | TE-6 | TK-10 | CGTH-W-1
5.63: TE-12
5.10: KS-1
5.62: MV4-11

COc1ccc(N(C(=O)Oc2c(C)cccc2C)c2ccnc(Nc3ccc(N4CCN(C)CC4)cc3)n2)c(OC)c1
> 7.70: K562 | A704
5.47: 697
5.76: SF-126
6.49: SW684
6.29: NCI-H1648
5.64: D-263MG
6.45: IST-MES1
7.11: KS-1
7.08: MPP-89
< 5.29: DU-4475 | ES5 | ES7 | EW-3 | GOTO | HCC2218 | HEL | L-363 | L-428 | LS-1034 | LU-139 | MFM-223 | MOLT-4 | MV4-11 | Mo | NB10 | NB13 | NB69 | NCI-H1304 | NCI-H1770 | NCI-H1838 | NCI-H720 | NH-12 | SF-539 | SK-LMS-1 | SK-MEL-2 | SK-NEP-1 | SK-PN-DW | TE-1 | ATN-1 | BB49-HNC | TE-6 | CGTH-W-1
5.96: TK-10
6.05: TE-12
6.46: OS-RC-2
6.51: COLO-829
6.02: NOS-1
5.69: ES6
